Laboratory results reported in US20240158370A1, “CK1 alpha AND DUAL CK1 alpha / GSPT1 DEGRADING COMPOUNDS” (Innovo Therapeutics, Inc., priority 2022, published 2024).

Experiments:
CK1α = target: T1, CK1α (Homo sapiens, UniProt P48729+Q96SW2); experiment: HiBiT degradation assay, CK1α, Procedure A; format: cell-based; conditions: six hours
T1 construct: CSNK1A1-HiBit KI HEK293(LgBit) Cells; host or cells: HEK293(LgBit) knock-in cells
How it was run: (§1)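 Cells in DMEM+10% FBS at 1×10^6 cells/ml were added to pre-spotted compound (10-point dose response, 10 μM to 0.005 μM, 0.1% DMSO) and incubated 6 h at 37° C. Nano-Glo HiBiT lytic reagent was added and luminescence read. DC50 and Ymin came from 4-parameter curve fits.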

GSPT1 = GSPT1 (Homo sapiens, UniProt P15170+Q96SW2); experiment: HiBiT degradation assay, GSPT1, Procedure A; format: cell-based; parameters: HiBit-GSPT1 KI HEK293(LgBit) Cells; host or cells: HEK293(LgBit) knock-in cells; conditions: six hours
Chain of GSPT1 (P15170 whole entry): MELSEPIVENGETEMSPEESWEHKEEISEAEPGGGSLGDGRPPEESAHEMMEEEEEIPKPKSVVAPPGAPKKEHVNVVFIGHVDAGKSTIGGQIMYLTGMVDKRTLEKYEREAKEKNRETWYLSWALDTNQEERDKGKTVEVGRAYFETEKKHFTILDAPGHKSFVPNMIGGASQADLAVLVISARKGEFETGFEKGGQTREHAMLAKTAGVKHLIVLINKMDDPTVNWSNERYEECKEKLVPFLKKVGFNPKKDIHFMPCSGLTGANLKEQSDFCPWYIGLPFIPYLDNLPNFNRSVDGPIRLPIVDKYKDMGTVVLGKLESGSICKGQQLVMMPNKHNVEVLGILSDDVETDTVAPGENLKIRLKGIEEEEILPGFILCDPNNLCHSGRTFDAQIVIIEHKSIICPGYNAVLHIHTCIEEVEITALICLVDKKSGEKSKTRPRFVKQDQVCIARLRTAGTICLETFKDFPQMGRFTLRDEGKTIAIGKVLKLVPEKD
Chain of GSPT1 (Q96SW2 whole entry): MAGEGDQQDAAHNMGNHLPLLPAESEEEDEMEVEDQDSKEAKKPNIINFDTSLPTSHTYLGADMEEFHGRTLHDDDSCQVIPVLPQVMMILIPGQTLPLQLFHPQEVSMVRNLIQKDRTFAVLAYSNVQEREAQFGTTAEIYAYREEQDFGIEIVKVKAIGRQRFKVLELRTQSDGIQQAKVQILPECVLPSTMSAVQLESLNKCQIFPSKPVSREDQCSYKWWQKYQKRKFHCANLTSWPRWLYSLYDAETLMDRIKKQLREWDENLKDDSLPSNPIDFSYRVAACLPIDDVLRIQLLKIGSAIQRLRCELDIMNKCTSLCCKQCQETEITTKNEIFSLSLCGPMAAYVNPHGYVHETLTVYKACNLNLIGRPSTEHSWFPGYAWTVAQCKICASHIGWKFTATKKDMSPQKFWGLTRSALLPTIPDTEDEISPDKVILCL
Chain of GSPT1 (Q16531 whole entry partner): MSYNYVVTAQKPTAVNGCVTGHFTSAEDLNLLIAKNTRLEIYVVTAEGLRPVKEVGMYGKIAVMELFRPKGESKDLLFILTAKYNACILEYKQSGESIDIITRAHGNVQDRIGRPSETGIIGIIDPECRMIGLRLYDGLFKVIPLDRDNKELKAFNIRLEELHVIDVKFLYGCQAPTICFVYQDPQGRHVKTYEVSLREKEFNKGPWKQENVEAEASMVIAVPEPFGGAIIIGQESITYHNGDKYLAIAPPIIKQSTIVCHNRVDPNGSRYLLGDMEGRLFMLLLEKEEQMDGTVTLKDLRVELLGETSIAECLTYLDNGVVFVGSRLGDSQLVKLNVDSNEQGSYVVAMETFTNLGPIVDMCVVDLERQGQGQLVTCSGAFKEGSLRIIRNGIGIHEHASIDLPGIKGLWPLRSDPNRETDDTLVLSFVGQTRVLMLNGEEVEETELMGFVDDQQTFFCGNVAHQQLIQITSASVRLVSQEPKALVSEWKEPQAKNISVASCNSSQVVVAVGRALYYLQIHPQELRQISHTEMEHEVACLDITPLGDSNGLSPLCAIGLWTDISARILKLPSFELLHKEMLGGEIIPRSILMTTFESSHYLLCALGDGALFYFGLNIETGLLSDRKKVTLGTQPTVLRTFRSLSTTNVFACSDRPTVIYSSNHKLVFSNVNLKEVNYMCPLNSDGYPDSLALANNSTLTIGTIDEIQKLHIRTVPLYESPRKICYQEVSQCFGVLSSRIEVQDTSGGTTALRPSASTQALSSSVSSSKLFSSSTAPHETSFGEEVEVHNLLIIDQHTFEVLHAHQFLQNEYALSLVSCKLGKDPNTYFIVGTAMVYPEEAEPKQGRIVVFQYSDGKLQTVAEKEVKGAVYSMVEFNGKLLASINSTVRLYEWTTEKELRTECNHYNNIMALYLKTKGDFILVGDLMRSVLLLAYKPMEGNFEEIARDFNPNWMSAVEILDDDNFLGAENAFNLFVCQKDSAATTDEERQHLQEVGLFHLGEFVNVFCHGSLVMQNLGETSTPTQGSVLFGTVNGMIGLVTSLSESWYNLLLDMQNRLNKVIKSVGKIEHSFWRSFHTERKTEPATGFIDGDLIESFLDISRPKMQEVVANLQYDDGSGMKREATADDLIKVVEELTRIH
How it was run: as §1

T1 sequence (P48729 whole entry): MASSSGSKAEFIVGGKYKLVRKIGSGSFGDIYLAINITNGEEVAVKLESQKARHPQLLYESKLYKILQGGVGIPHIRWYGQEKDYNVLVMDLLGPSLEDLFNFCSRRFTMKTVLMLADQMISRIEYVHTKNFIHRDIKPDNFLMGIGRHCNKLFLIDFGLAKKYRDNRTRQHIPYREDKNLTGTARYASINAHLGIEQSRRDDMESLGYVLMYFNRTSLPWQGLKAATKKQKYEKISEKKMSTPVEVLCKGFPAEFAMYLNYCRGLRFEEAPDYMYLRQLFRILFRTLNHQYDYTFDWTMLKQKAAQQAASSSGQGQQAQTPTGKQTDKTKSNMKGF
T1 sequence (Q96SW2 whole entry): as the sequence (Q96SW2 whole entry) above
T1 sequence (Q16531 whole entry partner): as the sequence (Q16531 whole entry partner) above

Row | CK1α Ymin (CK1α) | DC50 (CK1α) | DC50 (GSPT1) | GSPT1 Ymin (GSPT1) | Compound
1 | D (D = >10- 25% remaining) | < 0.025 µM | ≥ 0.025 µM | F (F = >75-100% remaining) | Cn1cc(-c2ccc3c(c2)CN(C2CCC(=O)NC2=O)C3=O)nc1C1CCC(F)(F)CC1 (stereo not shown) [Example 545, 3-(5-(2-(4,4-difluorocyclohexyl)-1-methyl-1H-imidazol-4-yl)-1-oxoisoindolin-2-yl)piperidine-2,6-dione]
2 | D (D = >10- 25% remaining) | < 0.025 µM | ≥ 0.025 µM | F (F = >75-100% remaining) | Cc1ncc(-c2c(-c3ccc4c(c3)CN(C3CCC(=O)NC3=O)C4=O)nc(C3CC3)n2C)cn1 (stereo not shown) [Example 547, 3-(5-(2-cyclopropyl-1-methyl-5-(2-methylpyrimidin-5-yl)-1H-imidazol-4-yl)-1-oxoisoindolin-2-yl)piperidine-2,6-dione]
3 | D (D = >10- 25% remaining) | < 0.025 µM | ≥ 0.025 µM | F (F = >75-100% remaining) | Cn1c(C2CC2)nc(-c2ccc3c(c2)CN(C2CCC(=O)NC2=O)C3=O)c1-c1cnc(C2CC2)nc1 (stereo not shown) [Example 548, 3-(5-(2-cyclopropyl-5-(2-cyclopropylpyrimidin-5-yl)-1-methyl-1H-imidazol-4-yl)-1-oxoisoindolin-2-yl)piperidine-2,6-dione]
4 | C (C = 0-10% remaining) | < 0.025 µM | ≥ 0.025 µM | F (F = >75-100% remaining) | CC(C)n1cc(-c2ccc3c(c2)CN(C2CCC(=O)NC2=O)C3=O)nc1-c1ccccc1 (stereo not shown) [Example 549, 3-(5-(1-isopropyl-2-phenyl-1H-imidazol-4-yl)-1-oxoisoindolin-2-yl)piperidine-2,6-dione]
5 | E (E = >25-75% remaining) | < 0.025 µM | ≥ 0.025 µM | F (F = >75-100% remaining) | O=C1CCC(N2Cc3cc(-n4ccc(-c5ccccc5)n4)ccc3C2=O)C(=O)N1 (stereo not shown) [Example 551, 3-(1-oxo-5-(3-phenyl-1H-pyrazol-1-yl)isoindolin-2-yl)piperidine-2,6-dione]
6 | E (E = >25-75% remaining) | ≥ 0.025 µM | ≥ 0.025 µM | F (F = >75-100% remaining) | O=C1CCC(N2Cc3cc(-n4cnc(-c5ccccc5)c4)ccc3C2=O)C(=O)N1 (stereo not shown) [Example 552, 3-(1-oxo-5-(4-phenyl-1H-imidazol-1-yl)isoindolin-2-yl)piperidine-2,6-dione]
7 | D (D = >10- 25% remaining) | < 0.025 µM | ≥ 0.025 µM | F (F = >75-100% remaining) | Cn1nc(-c2ccc3c(c2)CN(C2CCC(=O)NC2=O)C3=O)nc1N1CCCCC1 (stereo not shown) [Example 554, 3-(5-(1-methyl-5-(piperidin-1-yl)-1H-1,2,4-triazol-3-yl)-1-oxoisoindolin-2-yl) piperidine-2,6-dione]
8 | C (C = 0-10% remaining) | < 0.025 µM | ≥ 0.025 µM | F (F = >75-100% remaining) | Cn1cc(-c2ccc3c(c2)CN(C2CCC(=O)NC2=O)C3=O)nc1-c1cc(F)cc(F)c1 (stereo not shown) [Example 555]
9 | C (C = 0-10% remaining) | < 0.025 µM | ≥ 0.025 µM | F (F = >75-100% remaining) | Cn1cc(-c2ccc3c(c2)CN(C2CCC(=O)NC2=O)C3=O)nc1-c1ccc(F)cc1 (stereo not shown) [Example 556]
10 | C (C = 0-10% remaining) | < 0.025 µM | ≥ 0.025 µM | F (F = >75-100% remaining) | COc1ccc(-c2nc(-c3ccc4c(c3)CN(C3CCC(=O)NC3=O)C4=O)cn2C)cc1 (stereo not shown) [Example 557]
11 | C (C = 0-10% remaining) | < 0.025 µM | ≥ 0.025 µM | F (F = >75-100% remaining) | Cc1cc(-c2nc(-c3ccc4c(c3)CN(C3CCC(=O)NC3=O)C4=O)cn2C)ccc1N (stereo not shown) [Example 558]
12 | C (C = 0-10% remaining) | < 0.025 µM | < 0.025 µM | F (F = >75-100% remaining) | Cn1cc(-c2ccc3c(c2)CN(C2CCC(=O)NC2=O)C3=O)nc1-c1ccoc1 (stereo not shown) [Example 559]
13 | C (C = 0-10% remaining) | < 0.025 µM | < 0.025 µM | F (F = >75-100% remaining) | Cc1cc(F)ccc1-c1nc(-c2ccc3c(c2)CN(C2CCC(=O)NC2=O)C3=O)cn1C (stereo not shown) [Example 560]
14 | C (C = 0-10% remaining) | < 0.025 µM | < 0.025 µM | F (F = >75-100% remaining) | Cc1ccc(F)c(-c2nc(-c3ccc4c(c3)CN(C3CCC(=O)NC3=O)C4=O)cn2C)c1 (stereo not shown) [Example 561]
15 | C (C = 0-10% remaining) | < 0.025 µM | < 0.025 µM | F (F = >75-100% remaining) | Cc1cc(Cl)ccc1-c1nc(-c2ccc3c(c2)CN(C2CCC(=O)NC2=O)C3=O)cn1C (stereo not shown) [Example 562]
16 | C (C = 0-10% remaining) | < 0.025 µM | ≥ 0.025 µM | F (F = >75-100% remaining) | Cc1cc(-c2nc(-c3ccc4c(c3)CN(C3CCC(=O)NC3=O)C4=O)cn2C)ccc1F (stereo not shown) [Example 563]
17 | C (C = 0-10% remaining) | < 0.025 µM | < 0.025 µM | F (F = >75-100% remaining) | Cc1ccc(-c2nc(-c3ccc4c(c3)CN(C3CCC(=O)NC3=O)C4=O)cn2C)cc1Cl (stereo not shown) [Example 564]

Row | CK1α Ymin (CK1α) | DC50 (CK1α) | DC50 (GSPT1) | GSPT1 Ymin (GSPT1) | Compound
18 | C (C = 0-10% remaining) | < 0.025 µM | ≥ 0.025 µM | F (F = >75-100% remaining) | COc1ccc(-c2nc(-c3ccc4c(c3)CN(C3CCC(=O)NC3=O)C4=O)cn2C)cc1C (stereo not shown) [Example 565]
19 | C (C = 0-10% remaining) | < 0.025 µM | ≥ 0.025 µM | E (E = >25-75% remaining) | Cc1ccc(-c2nc(-c3ccc4c(c3)CN(C3CCC(=O)NC3=O)C4=O)cn2C)cc1C (stereo not shown) [Example 566]
20 | C (C = 0-10% remaining) | < 0.025 µM | < 0.025 µM | F (F = >75-100% remaining) | Cc1ccc(-c2nc(-c3ccc4c(c3)CN(C3CCC(=O)NC3=O)C4=O)cn2C)cc1 (stereo not shown) [Example 568]
21 | C (C = 0-10% remaining) | < 0.025 µM | < 0.025 µM | F (F = >75-100% remaining) | Cn1cc(-c2ccc3c(c2)CN(C2CCC(=O)NC2=O)C3=O)nc1-c1ccc(OC(F)F)cc1 (stereo not shown) [Example 569]
22 | C (C = 0-10% remaining) | < 0.025 µM | ≥ 0.025 µM | E (E = >25-75% remaining) | Cc1cccc(-c2nc(-c3ccc4c(c3)CN(C3CCC(=O)NC3=O)C4=O)cn2C)c1 (stereo not shown) [Example 570]
23 | C (C = 0-10% remaining) | < 0.025 µM | < 0.025 µM | F (F = >75-100% remaining) | Cc1ccccc1-c1nc(-c2ccc3c(c2)CN(C2CCC(=O)NC2=O)C3=O)cn1C (stereo not shown) [Example 571]
24 | D (D = >10- 25% remaining) | < 0.025 µM | < 0.025 µM | F (F = >75-100% remaining) | Cn1cc(-c2ccc3c(c2)CN(C2CCC(=O)NC2=O)C3=O)nc1-c1ccc(C#N)nc1 (stereo not shown) [Example 572]
25 | C (C = 0-10% remaining) | < 0.025 µM | < 0.025 µM | E (E = >25-75% remaining) | Cc1c(N)cccc1-c1nc(-c2ccc3c(c2)CN(C2CCC(=O)NC2=O)C3=O)cn1C (stereo not shown) [Example 573]
26 | C (C = 0-10% remaining) | < 0.025 µM | ≥ 0.025 µM | E (E = >25-75% remaining) | Cc1cc(-c2nc(-c3ccc4c(c3)CN(C3CCC(=O)NC3=O)C4=O)cn2C)ccc1Cl (stereo not shown) [Example 574]
27 | D (D = >10- 25% remaining) | < 0.025 µM | ≥ 0.025 µM | F (F = >75-100% remaining) | CCCCCCc1ccc(-c2nc(-c3ccc4c(c3)CN(C3CCC(=O)NC3=O)C4=O)cn2C)cc1 (stereo not shown) [Example 575]
28 | C (C = 0-10% remaining) | < 0.025 µM | < 0.025 µM | F (F = >75-100% remaining) | Cc1cc(C)cc(-c2nc(-c3ccc4c(c3)CN(C3CCC(=O)NC3=O)C4=O)cn2C)c1 (stereo not shown) [Example 576]
29 | C (C = 0-10% remaining) | < 0.025 µM | < 0.025 µM | E (E = >25-75% remaining) | CCCCc1ccc(-c2nc(-c3ccc4c(c3)CN(C3CCC(=O)NC3=O)C4=O)cn2C)cc1 (stereo not shown) [Example 577]
30 | C (C = 0-10% remaining) | < 0.025 µM | < 0.025 µM | E (E = >25-75% remaining) | COc1cccc(-c2nc(-c3ccc4c(c3)CN(C3CCC(=O)NC3=O)C4=O)cn2C)c1 (stereo not shown) [Example 578]
31 | C (C = 0-10% remaining) | < 0.025 µM | < 0.025 µM | F (F = >75-100% remaining) | COc1cc(-c2nc(-c3ccc4c(c3)CN(C3CCC(=O)NC3=O)C4=O)cn2C)ccc1Cl (stereo not shown) [Example 579]
32 | C (C = 0-10% remaining) | < 0.025 µM | ≥ 0.025 µM | F (F = >75-100% remaining) | Cn1cc(-c2ccc3c(c2)CN(C2CCC(=O)NC2=O)C3=O)nc1-c1cccc(OC2CC2)c1 (stereo not shown) [Example 580]
33 | C (C = 0-10% remaining) | < 0.025 µM | < 0.025 µM | F (F = >75-100% remaining) | Cn1cc(-c2ccc3c(c2)CN(C2CCC(=O)NC2=O)C3=O)nc1-c1ccc(OC2CC2)cc1 (stereo not shown) [Example 581]
34 | C (C = 0-10% remaining) | < 0.025 µM | < 0.025 µM | F (F = >75-100% remaining) | Cn1cc(-c2ccc3c(c2)CN(C2CCC(=O)NC2=O)C3=O)nc1-c1ccc(C2CCCCC2)cc1 (stereo not shown) [Example 582]
